Data from patent US9856298B2 (priority 2011, dated 2018).
Values after ≈ are worked out from the molar mass of the structure shown. Like-named read-outs stand apart in the source and are kept apart here. Numbered stars: 1 amine (or outer) side, 2 acyl side, 3 side chain; on linkers, the order of the positions; unused ones are H or OH. Square brackets hold non-standard residues; d marks the D form. Primed or numbered codes have the meaning given here. Peptide text beside a SMILES is read from it. * marks the point of attachment. δOrn(α-TMG) = CN(C)C(=N[C@@H](CCCN[*:1])C(=O)[*:2])N(C)C; Guan″ = guanidino group at the N-terminus, N=C(N)*; tPEG5000 = PEG of 5000 linked via thiol group; Guan = N-guanidino (N-terminal), N=C(N)*; Hyp = O=C(O)[C@@H]1C[C@@H](O)CN1; Tle = CC(C)(C)[C@H](N)C(=O)O; Orn = NCCC[C@H](N)C(=O)O

Assays:
[1] = test system: Escherichia coli strain BL21AI; experiment: Minimum inhibitory concentration in 1% TSB; type: cell-based; conditions: for MIC in TSB: E. coli BL21AI, 1% TSB, 20 hours at 37° C.
Protocol: To that end, the peptides were dissolved in water and diluted in a two-fold dilution series with 1% aqueous soybean medium (TSB) in sterile 96-well plates (Greiner Bio-One GmbH) from 128 μg/ml in twelve dilution steps to 62.5 ng/ml. Overnight cultures of Escherichia coli strain BL21AI were adjusted with 1% TSB to about […] colony forming units per ml. In each case 50 μl of peptide solution per well were then mixed with in each case 50 μl of the bacteria solution, in order to achieve a starting concentration of 4×10^5 bacteria per well. After incubation for 20 hours at 37° C., the absorption at 595 nm was determined (microplate reader, TECAN Trading AG).

mouse serum (100%) = conditions: 37° C., up to 6 hours
[2] = mouse; for uncleaved peptide remaining after the indicated time (instead of half-life): serum, 15 µg/ml
Protocol: 30 μl of a 1 mg/ml peptide solution were diluted with 120 μl of water and, after addition of 50 of serum, incubated at 37° C. for 0 hours, 0.5 hour, 1 hour, 2 hours or 4 hours. Alternatively, the peptide derivatives having a starting concentration of 3 mg/ml were diluted with serum to a final concentration of 15 μg/ml. According to the stability of the peptides, the samples were analysed at the times mentioned above or after 0 hours, 4 hours and 6 hours. The serum proteins were precipitated by addition of 50 μl of 15% TCA, and the supernatant was neutralised with 25 μl of 1 mol/l NaOH. The samples were made up to 250 μl with 5% B, 230 μl of the solution were transferred into a HPLC vial, and 220 μl were injected.
RP-HPLC analysis was carried out with a linear acetonitrile gradient (Biosolve BV, Valkenswaard, Netherlands) in the presence of 0.1% trifluoroacetic acid (TFA, UV grade, Fluka Chemie GmbH, Buchs, Switzerland) as ion-pair reagent. The fractions were co-crystallised with α-cyanohydroxycinnamic acid (Bruker Daltonik GmbH; Bremen, Germany) as matrix (4 mg/ml in 60% acetonitrile in 0.1% aqueous TFA) and analysed with a tandem mass spectrometer (MALDI-TOF/TOF-MS, 4700 Proteomics Analyzer; Applied Biosystems GmbH, Weiterstadt, Germany) in positive-ion reflector mode. The amount of intact peptides and their degradation products or metabolites could thus be identified and quantified at the individual times. 25% aqueous mouse serum, which was analysed in parallel for the same time intervals, was used as control.

| Compound | MIC in TSB [1] | cleaved bond (mouse serum (100%)) | other results |
| --- | --- | --- | --- |
| CC[C@H](C)[C@H](NC(=O)[C@H](Cc1ccc(O)cc1)NC(=O)[C@@H](NC(=O)[C@@H]1CCCN1C(=O)[C@H](CCCNC(=N)N)NC(=O)[C@H](CC(N)=O)NC(=O)[C@H](CC(N)=O)NC(=O)[C@H](CCCNC(=O)CNC(=O)[C@@H](N)CO)N=C(N(C)C)N(C)C)C(C)C)C(=O)N1CCC[C@H]1C(=O)N[C@@H](CCCNC(=N)N)C(=O)N1CCC[C@H]1C(=O)N[C@@H](CCCNC(=N)N)C(=O)N1CCC[C@H]1C(=O)N1CCC[C@H]1C(=O)N[C@@H](Cc1c[nH]cn1)C(=O)N1CCC[C@H]1C(=O)N[C@@H](CCCNC(=N)N)C(=O)N[C@@H](CC(C)C)C(=O)O [Api 137 (SG)] (H-SG[δOrn(α-TMG)]NNRPVYIPRPRPPHPRL-OH) | 0.2 µM (≈ 0.487 µg/mL) |  | Effect of peptide linker or remaining linker residues on the MIC ([1]; compared with the unmodified peptide): does not increase the MIC or increases it only insignificantly |
| CC(C)C[C@H](NC(=O)[C@H](Cc1ccc(O)cc1)NC(=O)[C@@H]1CCCN1C(=O)[C@@H]1CCCN1C(=O)[C@H](CCCCN)NC(=O)[C@H](CC(=O)O)NC(=O)[C@@H](N)C(C)C)C(=O)N1CCC[C@H]1C(=O)N[C@@H](CCCNC(=N)N)C(=O)N1CCC[C@H]1C(=O)N[C@@H](CCCNC(=N)N)C(=O)N1CCC[C@H]1C(=O)N1C[C@H](O)C[C@H]1C(=O)N[C@@H](CCCNC(=N)N)C(=O)N1C[C@H](O)C[C@H]1C(=O)N[C@H](C(=O)N[C@@H](Cc1ccc(O)cc1)C(=O)N[C@@H](CC(N)=O)C(=O)N[C@@H](CCCN)C(N)=O)C(C)(C)C [Onc 110] (H-VDKPPYLPRPRP[Hyp]R[Hyp][Tle]YN[Orn]-NH2) | 6.9 µM (≈ 16 µg/mL) |  |  |
| Guan-O(sPEG^5000-GARSG)NNRPVYIPRPRPPHPRL-OH ({Guan″}-[Orn]NNRPVYIPRPRPPHPRL-OH; not fully specified (residue 1)) [Api 137 (sPEG^5000-GARSG)] | 3.7 µM |  |  |
| Guan-O(sPEG^20000-GARSG)NNRPVYIPRPRPPHPRL-OH ({Guan″}-[Orn]NNRPVYIPRPRPPHPRL-OH; not fully specified (residue 1)) [Api 137 (sPEG^20000-GARSG)] | 10.2 µM |  |  |
| Guan-ONO(sPEG^750-GAARSG)RPVYIPRPRPPHPRL-OH |  | R-S |  |
| Guan-ONO(sPEG^750-GAARSG)RPVYIPRPRPPHPRL-OH ({Guan″}-[Orn]N[Orn]RPVYIPRPRPPHPRL-OH; not fully specified (residue 3)) [Api 301 (sPEG^750-GAARSG)] | 5.6 µM |  | Half-life (t1/2) in serum [2]: 55 min |
| Guan-ONO(sPEG^750-GARSG)RPVYIPRPRPPHPRL-OH |  | R-S |  |
| Guan-ONO(sPEG^750-GRSG)RPVYIPRPRPPHPRL-OH |  | R-S |  |
| Guan-ONO(sPEG^750-GRSG)RPVYIPRPRPPHPRL-OH ({Guan″}-[Orn]N[Orn]RPVYIPRPRPPHPRL-OH; not fully specified (residue 3)) [Api 301 (sPEG^750-GRSG)] | 1.5 µM |  | Half-life (t1/2) in serum [2]: 30 min |
| Guan-ONO(tPEG^750-GAARSG)RPVYIPRPRPPHPRL-OH |  | R-S |  |
| Guan-ONO(tPEG^750-GAARSG)RPVYIPRPRPPHPRL-OH ({Guan″}-[Orn]N[Orn]RPVYIPRPRPPHPRL-OH; not fully specified (residue 3)) [Api 301 (tPEG^750-GAARSG)] | 2.8 µM |  | Half-life (t1/2) in serum [2]: 50 min |
| Guan-ONO(tPEG^750-GARSG)RPVYIPRPRPPHPRL-OH |  | R-S |  |
| Guan-ONO(tPEG^750-GARSG)RPVYIPRPRPPHPRL-OH ({Guan″}-[Orn]N[Orn]RPVYIPRPRPPHPRL-OH; not fully specified (residue 3)) [Api 301 (tPEG^750-GARSG)] | 1.5 µM |  | Half-life (t1/2) in serum [2]: 45 min |
| Guan-ONO(tPEG^750-GRSG)RPVYIPRPRPPHPRL-OH |  | R-S |  |
| Guan-ONO(tPEG^750-GRSG)RPVYIPRPRPPHPRL-OH (Guan-[Orn]N[Orn]RPVYIPRPRPPHPRL-OH; not fully specified (residue 3)) [Api 301 (tPEG^750-GRSG)] | 2.9 µM |  | Half-life (t1/2) in serum [2]: 55 min |
| Guan-ONO(tPEG^5000-GAARSG)RPVYIPRPRPPHPRL-OH |  | R-S |  |
| Guan-ONO(tPEG^5000-GAARSG)RPVYIPRPRPPHPRL-OH ({Guan″}-[Orn]N[Orn]RPVYIPRPRPPHPRL-OH; not fully specified (residue 3)) [Api 301 (tPEG^5000-GAARSG)] | >47.5 µM |  | uncleaved peptide remaining after the indicated time (instead of half-life) ([2]; 5 h): 78% |
| Guan-ONO(tPEG^5000-GARSG)RPVYIPRPRPPHPRL-OH |  | R-S |  |
| Guan-ONO(tPEG^5000-GARSG)RPVYIPRPRPPHPRL-OH ({Guan″}-[Orn]N[Orn]RPVYIPRPRPPHPRL-OH; not fully specified (residue 3)) [Api 301 (tPEG^5000-GARSG)] | 9.2 µM |  | uncleaved peptide remaining after the indicated time (instead of half-life) ([2]; 6 h): 62% |
| Guan-ONO(tPEG^5000-GRSG)RPVYIPRPRPPHPRL-OH |  | R-S |  |
| Guan-ONO(tPEG^5000-GRSG)RPVYIPRPRPPHPRL-OH ({Guan″}-[Orn]N[Orn]RPVYIPRPRPPHPRL-OH; not fully specified (residue 3)) [Api 301 (tPEG^5000-GRSG)] | >38 µM |  | uncleaved peptide remaining after the indicated time (instead of half-life) ([2]; 6 h): 75% |
| Guan-OO(sPEG^750-GAARSG)NRPVYIPRPRPPHPRL-OH |  | R-S |  |

| Compound | MIC in TSB [1] | cleaved bond (mouse serum (100%)) | other results |
| --- | --- | --- | --- |
| Guan-OO(sPEG^750-GAARSG)NRPVYIPRPRPPHPRL-OH (Guan-[Orn][Orn]NRPVYIPRPRPPHPRL-OH; not fully specified (residue 2)) [Api 300 (sPEG^750-GAARSG)] | 2.8 µM |  | Half-life (t1/2) in serum [2]: 45 min |
| Guan-OO(sPEG^750-GARSG)NRPVYIPRPRPPHPRL-OH |  | R-S |  |
| Guan-OO(sPEG^750-GRSG)NRPVYIPRPRPPHPRL-OH |  | R-S |  |
| Guan-OO(tPEG^750-GAARSG)NRPVYIPRPRPPHPRL-OH |  | R-S |  |
| Guan-OO(tPEG^750-GAARSG)NRPVYIPRPRPPHPRL-OH (Guan-[Orn][Orn]NRPVYIPRPRPPHPRL-OH; not fully specified (residue 2)) [Api 300 (tPEG^750-GAARSG)] | 2.8 µM |  | Half-life (t1/2) in serum [2]: 35 min |
| Guan-OO(tPEG^750-GARSG)NRPVYIPRPRPPHPRL-OH |  | R-S |  |
| Guan-OO(tPEG^750-GARSG)NRPVYIPRPRPPHPRL-OH (Guan-[Orn][Orn]NRPVYIPRPRPPHPRL-OH; not fully specified (residue 2)) [Api 300 (tPEG^750-GARSG)] | 1.5 µM |  | Half-life (t1/2) in serum [2]: 45 min |
| Guan-OO(tPEG^750-GRSG)NRPVYIPRPRPPHPRL-OH |  | R-S |  |
| Guan-OO(tPEG^750-GRSG)NRPVYIPRPRPPHPRL-OH (Guan-[Orn][Orn]NRPVYIPRPRPPHPRL-OH; not fully specified (residue 2)) [Api 300 (tPEG^750-GRSG)] | 2.9 µM |  | Half-life (t1/2) in serum [2]: 40 min |
| Guan-OO(tPEG^5000-GAARSG)NRPVYIPRPRPPHPRL-OH |  | R-S |  |
| Guan-OO(tPEG^5000-GAARSG)NRPVYIPRPRPPHPRL-OH (Guan-[Orn][Orn]NRPVYIPRPRPPHPRL-OH; not fully specified (residue 2)) [Api 300 (tPEG^5000-GAARSG)] | 25.4 µM |  | uncleaved peptide remaining after the indicated time (instead of half-life) ([2]; 6 h): 76% |
| Guan-OO(tPEG^5000-GARSG)NRPVYIPRPRPPHPRL-OH |  | R-S |  |
| Guan-OO(tPEG^5000-GRSG)NRPVYIPRPRPPHPRL-OH |  | R-S |  |
| Guan-OO(tPEG^5000-GRSG)NRPVYIPRPRPPHPRL-OH (Guan-[Orn][Orn]NRPVYIPRPRPPHPRL-OH; not fully specified (residue 2)) [Api 300 (tPEG^5000-GRSG)] | >44.8 µM |  | uncleaved peptide remaining after the indicated time (instead of half-life) ([2]; 6 h): 75% |
| sPEG^750-GAR-VDKPPYLPRPRPHypRHypTleYNO-NH2 |  | R-V |  |
| sPEG^750-GAR-VDKPPYLPRPRPPROIYNO-NH2 |  | R-V |  |
| tPEG^750-GAR-VDKPPYLPRPRPHypRHypTleYNO-NH2 |  | R-V |  |
| tPEG^750-GAR-VDKPPYLPRPRPHypRHypTleYNO-NH2 (tPEG750-GARVDKPPYLPRPRP[Hyp]R[Hyp][Tle]YN[Orn]-NH2; not fully specified) [tPEG^750-GAR-Onc 110] | 48.4 µM |  | uncleaved peptide remaining after the indicated time (instead of half-life) ([2]; 6 h): 64% |
| tPEG^750-GAR-VDKPPYLPRPRPPROIYNO-NH2 |  | R-V |  |
| tPEG^5000-GAR-VDKPPYLPRPRPHypRHypTleYNO-NH2 (tPEG5000-GARVDKPPYLPRPRP[Hyp]R[Hyp][Tle]YN[Orn]-NH2) [tPEG^5000-GAR-Onc 110] |  |  | uncleaved peptide remaining after the indicated time (instead of half-life) ([2]; 6 h): 96% |
| tPEG^5000-GAR-VDKPPYLPRPRPPROIYNO-NH2 |  | R-V |  |
